Data published in patent publication US6624162B2, “Imidazopyridine compounds as 5-HT4 receptor modulators” (Pfizer Inc., priority 2001, dated 2003).

molecular target: T1, 5-HT4 receptors (Rattus norvegicus, UniProt Q62758); assay: Functional assay: rat oesophagus TMM relaxation; conditions: carbachol-contracted rat oesophagus TMM, 1 μM antagonist
T1 construct: The remaining inner tube of smooth muscle was known as the TMM; from tissue; host or cells: rat oesophagus tunica muscularis mucosae (TMM), male SD rats (Charles River)
T1 sequence (Q62758 whole entry): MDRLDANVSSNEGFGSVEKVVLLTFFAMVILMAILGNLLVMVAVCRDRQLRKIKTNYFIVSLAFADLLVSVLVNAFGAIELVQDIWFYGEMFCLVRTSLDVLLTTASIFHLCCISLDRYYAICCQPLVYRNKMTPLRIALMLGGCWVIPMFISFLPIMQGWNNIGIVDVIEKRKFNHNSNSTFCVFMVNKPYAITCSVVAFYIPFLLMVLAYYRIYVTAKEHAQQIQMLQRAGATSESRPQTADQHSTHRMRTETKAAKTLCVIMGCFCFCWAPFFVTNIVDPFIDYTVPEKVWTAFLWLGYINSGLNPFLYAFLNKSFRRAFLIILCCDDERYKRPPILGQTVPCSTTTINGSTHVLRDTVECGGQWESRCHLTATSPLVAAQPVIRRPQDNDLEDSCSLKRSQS
Source text: More specifically, partial agonist activity can be measured according to the following procedures.
Male SD rats (Charles River) weighing 250-350 g were stunned and then killed by cervical dislocation. The oesophagus was dissected from immediately proximal to the stomach (including piece of stomach to mark distal end) up to the level of the trachea and then placed in fresh Krebs' solution.
The outer skeletal muscle layer was removed in one go by peeling it away from the underlying smooth muscle layer using forceps (stomach to tracheal direction). The remaining inner tube of smooth muscle was known as the TMM. This was trimmed to 2 cm from the original ‘stomach-end’ and the rest discarded.
The TMMs were mounted as whole ‘open’ tubes in longitudinal orientation in 5 ml organ baths filled with warm (32° C.) aerated Krebs. Tissues were placed under an initial tension of 750 mg and allowed to equilibrate for 60 minutes. The tissues were re-tensioned twice at 15 minute intervals during the equilibration period. The pump flow rate was set to 2 ml/min during this time.
Following equilibration, the pump was switched off. The tissues were exposed to 1 μM carbachol and contracted and reached a steady contractile plateau within 15 minutes. Tissues were then subject to 1 μM 5-HT (this was to prime the tissues). The tissues relaxed in response to 5-HT fairly rapidly—within 1 minute. […]

For `O=C(OCCN1CCCCC1)c1c[nH]c2ccccc12` [SB 203,186, 1H-Indole-3-carboxylic acid, 2-(1-piperidinyl)ethyl ester], the “reversal of 5-HT induced relaxation” value was “reversed 5-HT induced relaxation”.

system: not given; assay: not given; conditions: not given

Point of comparison: `CCc1cn2c(N)c(Cl)cc(C(=O)NCC3CCN(CC(C)(C)OC)CC3)c2n1`, melting point 211 °C. Against it:
- CCCCN1CCC(CNC(=O)c2ccc(N)n3cc(C(C)C)nc23)CC1 — lower, 138 °C
- CCCCN1CCC(CNC(=O)c2ccc(N)n3cc(-c4ccccc4)nc23)CC1 — higher, 221 °C
- CCCc1cn2c(N)c(Cl)cc(C(=O)NC3CCN(CCCOC)CC3)c2n1.Cl — higher, 243 °C
- CCCCN1CCC(CNC(=O)c2cc(Cl)c(N)n3cc(-c4ccccc4)nc23)CC1.Cl — higher, 263 °C
- CCCCN1CCC(CNC(=O)c2ccc(N)n3cc(CCC)nc23)CC1 — lower, 172 °C
- CCc1cn2c(N)c(Cl)cc(C(=O)NCC3CCN(CCC(C)(C)C)CC3)c2n1 — higher, 234 °C
- CCCc1cn2c(N)ccc(C(=O)NC3CCN(CCCOC)CC3)c2n1.Cl — higher, 238 °C
- CNc1c(Cl)cc(C(=O)NCC2CCN(CCCOC)CC2)c2nccn12 — lower, 125 °C
- COCCCN1CCC(CNC(=O)c2cc(Cl)c(N)n3cc(C)nc23)CC1 — lower, 167 °C
- CCCCN1CCC(CNC(=O)c2cc(Cl)c(N)n3cc(C)nc23)CC1 — lower, 188 to 191 °C
- CCCCN1CCC(CNC(=O)c2cc(Cl)c(N)n3cc(C(C)C)nc23)CC1 — lower, 168 °C
- CCc1cn2c(N)c(Cl)cc(C(=O)NC3CCN(CCCOC)CC3)c2n1 — lower, 179 °C
- CCCCN1CCC(CNC(=O)c2ccc(N)n3cc(CC)nc23)CC1 — lower, 139 to 145 °C
- COC(C)(C)CN1CCC(CNC(=O)c2cc(Cl)c(N)n3cc(C)nc23)CC1 — the same, 211 °C
- CCc1cn2c(N)c(Cl)cc(C(=O)NCC3CCNCC3)c2n1 — lower, 153 °C
- CCCCN1CCC(CNC(=O)c2cc(Cl)c(NC)n3ccnc23)CC1 — lower, 148 °C
- CCCCN1CCC(CNC(=O)c2ccc(N)n3cc(Cl)nc23)CC1 — lower, 113 °C
- Cc1cn2c(N)c(Cl)cc(C(=O)NCC3CCN(CC(C)C)CC3)c2n1 — higher, 216 to 219 °C
